This note sets out measurements from patent publication US7507729B2, “Substituted imidazo-[1,5-a][1,2,4]triazolo[1,5-d][1,4] benzodiazepine derivatives” (priority 2005, dated 2009).

Structures can show the parent of a compound that is named as a salt. Where two headings read alike, the source gives them in different places.

As usually defined, the Ki is the dissociation constant of the complex between target and ligand, obtained from inhibition or displacement.

The target in assay [1] is T1, GABA A receptor α5β3γ2 (hα5) (Homo sapiens, UniProt P18507+P31644).
T1 construct: expressed in transfected cells; host or cells: HEK293, transiently transfected; membranes
Nature of the assay: [3H]flumazenil competition binding, membranes of HEK293 cells expressing human GABA A α5β3γ2. The procedure:
(§1) The affinity of compounds at GABA A receptor subtypes was measured by competition for [^3H]flumazenil (85 Ci/mmol; Roche) binding to HEK293 cells expressing rat (stably transfected) or human (transiently transfected) receptors of composition α1β3γ2, α2β3γ2, α3β3γ2 and α5β3γ2.
(§2) Cell pellets were suspended in Krebs-tris buffer (4.8 mM KCl, 1.2 mM CaCl2, 1.2 mM MgCl2, 120 mM NaCl, 15 mM Tris; pH 7.5; binding assay buffer), homogenized by polytron for ca. 20 sec on ice and centrifuged for 60 min at 4° C. (50000 g; Sorvall, rotor: SM24=20000 rpm). The cell pellets were resuspended in Krebs-tris buffer and homogenized by polytron for ca. 15 sec on ice. Protein was measured (Bradford method, Bio-Rad) and aliquots of 1 mL were prepared and stored at −80° C.
(§3) Radioligand binding assays were carried out in a volume of 200 μL (96-well plates) which contained 100 μL of cell membranes, [^3H]flumazenil at a concentration of 1 nM for α1, α2, α3 subunits and 0.5 nM for α5 subunits and the test compound in the range of 10^−10-3×10^−6 M.
(§4) Nonspecific binding was defined by 10^−5 M diazepam and typically represented less than 5% of the total binding. Assays were incubated to equilibrium for 1 hour at 4° C. and harvested onto GF/C uni-filters (Packard) by filtration using a Packard harvester and washing with ice-cold wash buffer (50 mM Tris; pH 7.5). After drying, filter-retained radioactivity was detected by liquid scintillation counting. Ki values were calculated using Excel-Fit (Microsoft) and are the means of two determinations.

In assay [2] the target is T2, GABA A receptor α1β3γ2 (hα1) (Homo sapiens, UniProt P14867+P18507).
T2 construct: expressed in transfected cells; host or cells: HEK293, transiently transfected; membranes
Briefly: [3H]flumazenil competition binding, membranes of HEK293 cells expressing human GABA A α1β3γ2. The procedure: as §1, §2, §3, §4

The mark [3] stands for this setting: [3H]flumazenil 1 nM, 1 hour at 4° C., means of two determinations, read-out: Ki[nM] hα1.
[4] abbreviates: [3H]flumazenil 0.5 nM, 1 hour at 4° C., means of two determinations, read-out: Ki[nM] hα5.

On to `Cc1ccc(Cc2nc3n(n2)Cc2c(C)ncn2-c2ccc(Cl)cc2-3)cn1` [Example 185, 3-Chloro-10-methyl-6-(6-methyl-pyridin-3-ylmethyl)-9H-imidazo[1,5-a][1,2,4]triazolo[1,5-d][1,4]benzodiazepine], for which the values for the Ki in assay [1] and in assay [2] (setting [3]) were 0.9 nM and 248 nM, respectively.

Turning to `Cc1ccc2c(c1)-c1nc(Cc3cc(C)no3)nn1Cc1c(C)ncn1-2` [Example 236, 3,10-Dimethyl-6-(3-methyl-isoxazol-5-ylmethyl)-9H-imidazo[1,5-a][1,2,4]triazolo[1,5-d][1,4]benzodiazepine], the inhibition constant Ki in assay [1] turned out to be 0.8 nM; in assay [2] (setting [3]), 496 nM.

As to `Cc1ncn2c1Cn1nc(Cc3ccccn3)nc1-c1ccccc1-2` [Example 261, 10-Methyl-6-(pyridine-2-ylmethyl)-9H-imidazo[1,5-a][1,2,4]triazolo[1,5-d][1,4]benzodiazepine], the results for the Ki in assay [1] (setting [4]) and in assay [2] were 0.7 nM and 26.6 nM, respectively.

Turning to `Cc1ncn2c1Cn1nc(Cc3cccnc3)nc1-c1ccccc1-2` [Example 265, 10-Methyl-6-(pyridine-3-ylmethyl)-9H-imidazo[1,5-a][1,2,4]triazolo[1,5-d][1,4]benzodiazepine], the Ki in assay [1] (setting [4]) worked out at 0.62 nM; in assay [2], 39.3 nM.

On to `Cc1ncn2c1Cn1nc(Cc3ccncc3)nc1-c1ccccc1-2` [Example 267, 10-Methyl-6-(pyridine-4-ylmethyl)-9H-imidazo[1,5-a][1,2,4]triazolo[1,5-d][1,4]benzodiazepine], for which the inhibition constant (Ki) stood at 0.25 nM in assay [1] (setting [4]) and 20.4 nM in assay [2].

In the case of `Cc1ncn2c1Cn1nc(Cn3ccnc3)nc1-c1ccccc1-2` [Example 275, 6-(Imidazol-1-ylmethyl)-10-methyl-9H-imidazo[1,5-a][1,2,4]triazolo[1,5-d][1,4]benzodiazepine hydrochloride (1:1)], the Ki in assay [1] (setting [4]) is 0.6 nM; in assay [2] it was 33.6 nM.

Turning to `CN1CCN(Cc2nc3n(n2)Cc2c(Cl)ncn2-c2ccc(Br)cc2-3)C1=O` [Example 300, 3-Bromo-10-chloro-6-(3-methyl-2-oxo-imidazolidin-1-ylmethyl)-9H-imidazo[1,5-a][1,2,4]triazolo[1,5-d][1,4]benzodiazepine], the values for the Ki in assay [1] (setting [4]) and in assay [2] were 0.7 nM and 62.1 nM, respectively.

Consider `O=C1NCCN1Cc1nc2n(n1)Cc1c(Cl)ncn1-c1ccc(Br)cc1-2` [Example 301, 3-Bromo-10-chloro-6-(2-oxo-imidazolidin-1-ylmethyl)-9H-imidazo[1,5-a][1,2,4]triazolo[1,5-d][1,4]benzodiazepine], for which the Ki in assay [1] (setting [4]) is 0.7 nM; in assay [2] (setting [3]) it was 50.5 nM.

As for `O=C1CSC(=O)N1Cc1nc2n(n1)Cc1c(Cl)ncn1-c1ccc(Br)cc1-2` [Example 309, 3-Bromo-10-chloro-6-(2,4-dioxo-thiazolidin-3-ylmethyl)-9H-imidazo[1,5-a][1,2,4]triazolo[1,5-d][1,4]benzodiazepine], the Ki in assay [1] (setting [4]) turned out to be 0.5 nM; in assay [2], 55.2 nM.

Turning to `O=C1CCC(=O)N1Cc1nc2n(n1)Cc1c(Cl)ncn1-c1ccc(Br)cc1-2` [Example 310, 3-Bromo-10-chloro-6-(2,5-dioxo-pyrrolidin-1-ylmethyl)-9H-imidazo[1,5-a][1,2,4]triazolo[1,5-d][1,4]benzodiazepine], the results for the Ki in assay [1] (setting [4]) and in assay [2] (setting [3]) were 0.7 nM and 69.7 nM, respectively.

For `O=C1SCCN1Cc1nc2n(n1)Cc1c(Cl)ncn1-c1ccc(Br)cc1-2` [Example 312, 3-Bromo-10-chloro-6-(2-oxo-thiazolidin-3-ylmethyl)-9H-imidazo[1,5-a][1,2,4]triazolo[1,5-d][1,4]benzodiazepine], the Ki in assay [1] (setting [4]) was 0.5 nM; in assay [2] it was 60 nM.

On to `C[C@H]1CN(Cc2nc3n(n2)Cc2c(Cl)ncn2-c2ccc(Br)cc2-3)C(=O)O1` [Example 314, 3-Bromo-10-chloro-6-((5S)-5-methyl-2-oxo-oxazolidin-3-ylmethyl)-9H-imidazo[1,5-a][1,2,4]triazolo[1,5-d][1,4]benzodiazepine], for which the Ki in assay [1] (setting [4]) came out at 0.7 nM; in assay [2], 32.3 nM.

On to `O=C1OCCN1Cc1nc2n(n1)Cc1c(Cl)ncn1-c1ccc(Cl)cc1-2` [Example 316, 3,10-Dichloro-6-(2-oxo-oxazolidin-3-ylmethyl)-9H-imidazo[1,5-a][1,2,4]triazolo[1,5-d][1,4]benzodiazepine], for which the values for the Ki in assay [1] and in assay [2] (setting [3]) were 0.9 nM and 116 nM, respectively.

Consider `Cc1ncn2c1Cn1nc(Cn3ncccc3=O)nc1-c1cc(Br)ccc1-2` [Example 330, 3-Bromo-10-methyl-6-(6-oxo-6H-pyridazin-1-ylmethyl)-9H-imidazo[1,5-a][1,2,4]triazolo[1,5-d][1,4]benzodiazepine hydrochloride (1:1)], for which the Ki came out at 0.7 nM in assay [1] and 134 nM in assay [2] (setting [3]).

With `Cc1noc(Cc2nc3n(n2)Cc2c(C)ncn2-c2ccc(Br)cc2-3)n1` [Example 349, 3-Bromo-10-methyl-6-(3-methyl-[1,2,4]oxadiazol-5-ylmethyl)-9H-imidazo[1,5-a][1,2,4]triazolo[1,5-d][1,4]benzodiazepine], the Ki turned out to be 0.9 nM in assay [1] and 469 nM in assay [2] (setting [3]).

In the case of `Cc1ncn2c1Cn1nc(Cn3ccccc3=O)nc1-c1ccccc1-2` [Example 378, 10-Methyl-6-(2-oxo-2H-pyridin-1-ylmethyl)-9H-imidazo[1,5-a][1,2,4]triazolo[1,5-d][1,4]benzodiazepine], the Ki worked out at 0.6 nM in assay [1] (setting [4]) and 42.1 nM in assay [2].

As for “Ethyl 3-bromo-6-methoxymethyl-9H-imidazo[1,5-a][1,2,4]triazolo[1,5-d][1,4]benzodiazepine-10-carboxylate [Example 38]”, the Ki stood at 0.4 nM in assay [1] (setting [4]) and 6.9 nM in assay [2] (setting [3]).
